# Measured values as given in patent US6987111B2 (Alkermes Controlled Therapeutics, II, priority 2003, dated 2006).
# Assay: Pharmacokinetic evaluation in rats following single subcutaneous doses
# Type: in vivo
# Conditions: male Sprague-Dawley rats, single SC injection of 40 mg in 0.75 mL aqueous diluent, plasma 2 h to 14 d
# Method: Species and Strain: Sprague-Dawley rats. Male; 450+/−50 grams.
# Study Groups: 4 Groups. 12 subjects
# Route of Injection: Subcutaneous (SC) injection into the interscapular region. Injection Vehicle: Aqueous Diluent: Water, 3% CMC low viscosity, 0.1% Tween 20, in 0.9% NaCl Dose Volumes: Dose suspensions were formulated as follows: • Group A: 20 mg powder in 0.75 mL Diluent • Group B: 40 mg microparticles in 0.75 mL Diluent • Group C: 20 mg powder in 0.75 mL Diluent • Group D: 50 mg powder in 0.75 mL Diluent Blood Collection: Blood samples were collected via a lateral tail vein after anesthesia with Halothane. A syringe without an anticoagulant was used for the blood collection, then the whole blood was transferred to tubes containing K2 EDTA and mixing beads (Microtainer®; MFG# BD365974). The blood samples were processed (the tubes are inverted 15–20 times and centrifuged for 2 minutes at >14,000 g's) to separate plasma. The plasma samples prepared in this manner were transferred to labeled plain tubes (Microtainer®; MFG# BD5962) and stored frozen at <−70° C. Blood Volumes: At least 250 μL blood for each time point during the first 24 hours and 400 μL for each time point thereafter.
substance,measurement,value
haloperidol pamoate [pamoate salt],extended release profile (plasma concentrations over time),good to excellent extended release profiles
